Read-outs that look alike come from different tables or passages of the source.
How the values were obtained:
[1] = system: isoprenaline-stimulated adenylate cyclase activity in rat primary adipocytes; settings: 10 minutes at 37° C., FIG. 11
Procedure: Isoprenaline stimulates adenylate cyclase activity and subsequently the process of lipolysis following activation of β-adrenoceptors and G,a in adipocytes.
A reaction mixture of 500 μl was used in a 1.5 ml eppendorf tube. The reaction was started by the addition of 100 μl of adipocytes to a 400 μl volume of Krebs buffer containing isoprenaline and test compound. Following the addition of the adipocytes the reaction tube was incubated at 37° C. for 10 minutes. The reaction was stopped with the addition of 500 μl of a stop mixture containing methanol (1 part), chloroform (2 parts) and 0.1N HCl (0.1 part). Following the addition of the stop mixture each tube was vortexed and then centifuged at 5000 rpm for 5 minutes. 300 μl of the supernatent was removed and stored at −20° C. The levels of cAMP in each samples were determined using an ELISA kit from R&D systems (DE0355).

human GPR41 = target: T1, human GPR41 (Homo sapiens, UniProt O14843)
T1 sequence (O14843 1-346): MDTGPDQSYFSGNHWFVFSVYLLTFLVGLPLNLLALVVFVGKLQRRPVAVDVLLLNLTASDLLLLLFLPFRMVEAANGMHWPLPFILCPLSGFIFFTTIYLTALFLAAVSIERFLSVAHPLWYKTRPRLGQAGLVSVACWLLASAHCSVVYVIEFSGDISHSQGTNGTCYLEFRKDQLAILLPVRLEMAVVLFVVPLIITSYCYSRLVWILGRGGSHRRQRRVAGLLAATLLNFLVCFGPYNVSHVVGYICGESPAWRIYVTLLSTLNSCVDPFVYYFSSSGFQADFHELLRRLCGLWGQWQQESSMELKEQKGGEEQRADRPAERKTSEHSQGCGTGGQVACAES
Procedure: HEK293T cells (HEK293 cells stably expressing the SV40 large T-antigen) were maintained in DMEM containing 10% (v/v) foetal calf serum and 2 mM glutamine. Cells were seeded in 60 mm culture dishes and grown to 60-80% confluency (18-24 h) prior to transfection with pCDNA3 containing the relevant DNA species using Lipofectamine reagent. For transfection, 3 μg of DNA was mixed with 10 μl of Lipofectamine in 0.2 ml of Opti-MEM (Life Technologies Inc.) and was incubated at room temperature for 30 min prior to the addition of 1.6 ml of Opti-MEM. Cells were exposed to the Lipofectamine/DNA mixture for 5 h and 2 ml of 20% (v/v) newborn calf serum in DMEM was then added. Cells were harvested 48-72 h after transfection.
Plasma membrane-containing P2 particulate fractions were prepared from cell pastes frozen at −80° C. after harvest. All procedures were carried out at 4° C. Cell pellets were resuspended in 1 ml of 10 mM Tris-HCl and 0.1 mM EDTA, pH 7.5 (buffer A) and by homogenisation for 20 s with a polytron homogeniser followed by passage (5 times) through a 25-guage needle. Cell lysates were centrifuged at 1,000 g for 10 min in a microcentrifuge to pellet the nuclei and unbroken cells and P2 particulate fractions were recovered by microcentrifugation at 16,000 g for 30 min. P2 particulate fractions were resuspended in buffer A and stored at −80° C. until required. Protein concentrations were determined using the bicinchoninic acid (BCA) procedure (4) using BSA as a standard.
Assays were performed in 96-well format using a method modified from Wieland and Jakobs, 1994. Membranes (10 μg per point) were diluted to 0.083 mg/ml in assay buffer (20 mM HEPES, 100 mM NaCl, 10 mM MgCl2, pH7.4) supplemented with saponin (10 mg/l) and pre-incubated with 40 μM GDP. […] Non-specific binding was determined by the inclusion of 0.6 mM GTP. […] Plates were centrifuged at 1500 g for 5 min and bound [^35S]GTPγS was determined by scintillation counting on a Wallac 1450 microbeta Trilux scintillation counter.

rGPR41 [2] = target: T2, rGPR41 (Rattus norvegicus, UniProt B2GV46); assay: Yeast FUS1-lacZ/FUS1-HIS3 reporter assay, rGPR41 in S. cerevisiae MMY22 (Gpa1/Gαo), FDG substrate; format: cell-based; set-up: expressed in transfected cells; host or cells: S. cerevisiae MMY22 (A1, A5; Gpa1/Gαo integrated) or MMY11 + pRS314-Gpa1/Gαo (A4), transformed with p426GPD-rGPR41
T2 sequence (B2GV46 1-319): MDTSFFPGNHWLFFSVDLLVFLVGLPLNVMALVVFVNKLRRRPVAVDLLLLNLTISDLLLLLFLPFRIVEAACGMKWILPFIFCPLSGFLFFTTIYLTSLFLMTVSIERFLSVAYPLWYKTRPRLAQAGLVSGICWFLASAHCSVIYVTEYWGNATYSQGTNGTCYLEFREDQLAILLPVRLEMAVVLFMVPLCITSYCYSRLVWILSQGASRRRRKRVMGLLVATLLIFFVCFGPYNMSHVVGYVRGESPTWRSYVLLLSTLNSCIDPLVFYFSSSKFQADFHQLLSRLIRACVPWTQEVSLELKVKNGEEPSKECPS
Procedure: A study was carried out of the function of rGPR41 following expression in S. cerevisiae MMY22, which is a derivative of S. cerevisiae MMY11 containing a copy of the gene encoding the Gpa1/Gαo transplant chimera described above (in which the 5 C-terminal amino acids of Gpa1 are replaced with the 5 C-terminal amino acids of Gαo) integrated into the genome. To do this, a cassette comprising the GPA1 promoter, nucleotide sequence encoding Gpa1/Gαo, and the terminator was sub-cloned from pRS314-Gpa1/Gαo into the yeast integrating plasmid pRS304 (Sikorski and Hieter, 1989). The resulting plasmid pRS304-Gpa1/Gαo was transformed into MMY11 and integrated into the trp1 locus creating MMY22.
The rGPR41 expression construct described above, p462GPD-rGPR41 was introduced into MMY22 by transformation as described above. Four separate transformants were tested for reporter gene activation in response to propionate. Assays for FUS1-lacZ and FUS1-HIS3 induction were performed as described, except the β-galactosidase (lacZ) substrate fluorescein di-β-D-galactopyranoside (FDG) was used in place of CPRG, and 3-aminotriazole concentration was 5 mM. Also, black-walled 96-well microtitre plates were used, and fluorescence resulting from degradation of FDG to fluorescein due to β-galactosidase was determined using a Spectrofluor microtitre plate reader (Tecan)(excitation wavelength: 485 nm; emmision wavelength: 535 nm).
A series of carboxylic acids and other compounds related to propionate were tested for the ability to activate rGPR41. Experiments were performed as described above, using yeast cells of strain MMY22 transformed with rGPR41 expression plasmid p462GPD-rGPR41, except that the agonist propionate was replaced with one of a series of other compounds, which are listed in table 2 below.
In vivo assays of reporter gene induction were carried out by suspending MMY11 cells transformed as described above to a density of 0.02 OD600/ml in 200 μl SC-glucose (2%) medium lacking tryptophan, uracil and histidine. This medium was supplemented with 10 mM 3-aminotriazole and the β-galactosidase (lacZ) substrate chlorophenolred-β-D-galactopyranoside (CPRG; Boehringer Mannheim) to a concentration of 0.1 mg/ml. Additionally the medium was supplemented with various concentrations of the agonist ligand, propionate (sodium propionate, pH 7.0). To visualise the yellow to red colour change reaction occurring on degradation of CPRG due to β-galactosidase, the medium was buffered to pH 7 with 0.1 M sodium phosphate. The assay was conducted in flat-bottomed sterile 96-well microtitre plates. Plates were incubated for 24 hours at 30° C. without agitation, and absorbance at 570 nm was determined using a Spectrofluor microtitre plate reader (Tecan).

rGPR41 [3] = target: T2, rGPR41; assay: Yeast reporter gene induction, MMY11 cells with p426GPD-rGPR41 and pRS314-Gpa1/Gαo, CPRG substrate; format: cell-based; settings: MMY11, Gpa1/Gαo transplant; FIG. 6
Description: Significant absorbance at 570 nm, corresponding to induction of FUS1-lacZ and FUS1-HIS3 reporter genes, was detected for MMY11 cells containing p426GPD-rGPR41 in combination with pRS314-Gpa1/Gαo. These cells express rGPR41 in combination with a Gα subunit identical to Gpa1 but in which the 5 C-terminal amino acids are replaced with the 5 C-terminal amino acids of the mammalian Gα subunit, Gαo. This response is dependant on the presence of the agonist ligand propionate since no induction is detected in the absence of propionate (FIG. 6). […] Of the other Gα subunits tested, the pRS314-Gpa1/Gα12 and pRS314-Gpa1/Gα13 transplants supported weak rGPR41 coupling detectable after 48 hrs incubation (data not shown), and with no other Gα subunit could ligand responses of rGPR41 be detected.
The yeast strain MMY11 has been described previously (Olesnicky et al, 1999). […]
In vivo assays of reporter gene induction were carried out by suspending MMY11 cells transformed as described above to a density of 0.02 OD600/ml in 200 μl SC-glucose (2%) medium lacking tryptophan, uracil and histidine. […] Plates were incubated for 24 hours at 30° C. without agitation, and absorbance at 570 nm was determined using a Spectrofluor microtitre plate reader (Tecan).

[4] = yeast MMY22 with p462GPD-rGPR41, FDG fluorescence, compounds as salt solutions buffered to pH 7.0, read-out: Agonism @ rGPR41 Approx. EC50

SMILES	isoprenaline-amplified cAMP levels [1]	stimulation of [35S]GTPγS binding (human GPR41)	EC50 (rGPR41 [2]; [4]) [µM]	stimulation of [35S]GTPγS binding (human GPR41; membranes of HEK293T cells, human GPR41 + Go1α, FIG. 2-4)	fluorescence, activation of the pheromone response pathway by rGPR41 (rGPR41 [2]; MMY22, four transformants, FIG. 7)	EC50 (rGPR41 [2]; yeast MMY22, text of Example 8, read-out: EC50 value at rGPR41) [µM]	induction of FUS1-lacZ and FUS1-HIS3 reporter genes (absorbance at 570 nm) (rGPR41 [3])
CC(=O)O [Acetate]	reduction of isoprenaline-amplified cAMP levels	stimulation of [^35S]GTPγS binding	~1000				
CCC(=O)O [Propionate]			~5	most potent and efficacious	dependent on the concentration of propionate	5	can be activated by propionate
